Values of other authors as cited in patent publication US20170258746A1, “ACETIC ACID/THYMOL COMPOSITIONS AND THEIR USE IN THE TREATMENT OF ONYCHOMYCOSIS” (Dr. Paul's Enterprises, LLC, priority 2008, published 2017).

Tests used:
[1] = oral, in children; American Family Physician vol. 63, no. 4, Feb. 15, 2001
onychomycosis = conditions: oral, Arch. Dermatol. 134(12) (December 1998)

COC1=CC(=O)C[C@@H](C)[C@]12Oc1c(Cl)c(OC)cc(OC)c1C2=O [griseofulvin]
toxicity [1]: some level of toxicity

CN(C/C=C/C#CC(C)(C)C)Cc1cccc2ccccc12 [terbinafine]
disease-free nail, % of patients (onychomycosis): 35-50%
